The record followed here is patent US20260224470A1, “Composition For Improving The Aesthetic Appearance Of Hair And Skin Appendages” (priority 2023, published 2026).

For the assay, the system named is glycogen-phosphorylase (PYGL) gene expression. Kind of assay: PYGL gene expression by qRT-PCR in Human Follicle Dermal Papilla Cells. Type of assay: cell-based. Particulars: 6 μg/mL; serum-starved HFDPC, 24 h treatment; compared with positive control (starved cells), p<0.005. How it is done: The PromoCell® Human Follicle Dermal Papilla Cells (HFDPC) cell line was used to test the inhibitory activity on PYGL of maslinic acid and a Swertia chirata extract (dry extract on maltodextrins) alone or as a combination.
HFDPCs (DP; PromoCell GmbH, Heidelberg, Germany, batch 325Z017.1 and 322Z030.1) were grown in base culture medium (Follicle Dermal Papilla Cell Growth Medium) (PromoCell GmbH) supplemented with 4 μL/mL of bovine pituitary gland extract (Bovine Pituitary Extract), 0.04 mL/mL fetal serum, 1 ng/ml recombinant human fibroblast growth factor, 5 μg/mL recombinant human insulin (PromoCell). Cells were cultured with […] primocin (Invivogen, Toulouse, France, #ant-pm-2) in a humidified incubator with 5% CO2 at 37° C.
POSITIVE CONTROL: Cells treated in Follicle Dermal Papilla Cell Growth medium without serum (starved) under the same culture conditions.
NEGATIVE CONTROL: Untreated cells in Follicle Dermal Papilla Cell Growth medium under the same culture conditions.
PYGL gene expression was studied by RT-PCR.
When cells (HFDPC) reached about 80% confluence, they were detached with trypsin/EDTA and seeded at a density of 1×10^6 cells/mL into 12-well plates and incubated at 37° C., 5% CO2 (24 h). […]

For `CC1(C)CC[C@]2(C(=O)O)CC[C@]3(C)C(=CC[C@@H]4[C@@]5(C)C[C@@H](O)[C@H](O)C(C)(C)[C@@H]5CC[C@]43C)[C@@H]2C1` [maslinic acid, (2α,3β)-2,3-dihydroxyolean-12-en-28-oic acid], the “inhibition of PYGL gene expression” value is listed as “significantly inhibit (p<0.005)”.
